# Laboratory results published in US4001272A, “Herbicidal 2-fluoro-4-halo-phenyl-4,5,6,7-tetrahydro-2H-isoindole-1,3-diones” (E. I. Du Pont de Nemours and Company, priority 1974, dated 1977).
# What was measured:
# Type in all cases: in vivo
# squash = experiment: Test A: field test, crop response of squash; settings: seven weeks, 0 = no injury to 10 = complete kill
# Source text: (§1) In test A, soybeans, peanuts, lima beans, green beans and squash were planted in a field infested with the following weed seeds: crabgrass (Digitaria sanquinalis), foxtails (Setaria spp.), barnyardgrass (Echinochloa crusgalli), pigweed (Amaranthus spp.), ragweed (Ambrosia artemisiifolia), velvetleaf (Abutilon theophrasti), purslane (Portulaca oleracea) and flower-of-an-hour (Hibiscus trionum). A 50% wettable powder formulation of 2-(4-chloro-2-fluorophenyl)-4,5,6,7-tetrahydro-2H-isoindole-1,3-dione was applied in the form of an aqueous suspension at rates of 0.125, 0.25, 0.5 and 1.0 kg/ha, each treatment replicated twice. The plots were rated for percent weed control and crop response seven weeks after treatment. Crop response was expressed on a scale of 0 = no injury to 10 = complete kill.
# [1] = system: crabgrass (Digitaria sanquinalis); experiment: Test A: field test, percent weed control of crabgrass; settings: seven weeks after treatment
# Source text: as §1
# lima beans = experiment: Test A: field test, crop response of lima beans; settings: seven weeks, 0 = no injury to 10 = complete kill
# Source text: as §1
# [2] = system: purslane (Portulaca oleracea); experiment: Test A: field test, percent weed control of purslane; settings: seven weeks after treatment
# Source text: as §1
# soybeans = experiment: Test A: field test, crop response of soybeans; settings: seven weeks, 0 = no injury to 10 = complete kill
# Source text: as §1
# [3] = system: ragweed (Ambrosia artemisiifolia); experiment: Test A: field test, percent weed control of ragweed; settings: seven weeks after treatment
# Source text: as §1
# [4] = system: velvetleaf (Abutilon theophrasti); experiment: Test A: field test, percent weed control of velvetleaf; settings: seven weeks after treatment
# Source text: as §1
# [5] = system: barnyardgrass (Echinochloa crusgalli); experiment: Test A: field test, percent weed control of barnyardgrass; settings: seven weeks after treatment
# Source text: as §1
# naturally emerging weeds = experiment: Test B: control of naturally emerging weeds, comparison of treatments
# Source text: Test B involved a field sown to carrots and in which the following weed species emerged naturally: crabgrass (Digitaria sanquinalis), foxtails (Setaria spp.), barnyardgrass (Echinochloa crusgalli), pigweed (Amaranthus spp.), ragweed (Ambrosia artemisiifolia), velvetleaf (Abutilon theophrasti), smartweed (Polygonum spp.) and lambsquarters (Chenopodium album). Sixteen days after sowing, when all species of weeds had emerged, the plants were sprayed overall with a 50% wettable powder formulation of 2-(4-chloro-2-fluorophenyl)4,5,6,7-tetrahydro-2H-isoindole-1,3dione (Treatment I) in the form of an aqueous suspension, at rates of 0.5, 1.0, 2.0 and 4.0 kg/ha, and with 2-(4-chlorophenyl)-4,5,6,7-tetrahydro-2H-isoindole-1,3-dione (Treatment II) in the same form and at the same rates. The spray volume was 425 l/ha. The surfactant Tween 20* was added to all treatments in a concentration of 0.1% by weight. Six weeks after treatment, visual observations were made of percent weed control obtained and, for carrots, crop response.
# *Tween 20 -- A trademark of ICI of America which is the reaction product of sorbitan monolaurate with an average of 20 moles of ethylene oxide.
compound,measurement,setting,value
"O=C1C2=C(CCCC2)C(=O)N1c1ccc(Cl)cc1F [Treatment I, 2-(4-chloro-2-fluorophenyl)-4,5,6,7-tetrahydro-2H-isoindole-1,3-dione]","Crop Response, Squash",squash; 0.125 kg/ha,2
same,"Crop Response, Squash",squash; 0.25 kg/ha,2
same,"Crop Response, Squash",squash; 0.50 kg/ha,6
same,"Crop Response, Squash",squash; 1.00 kg/ha,9.5
same,"% Control, Crabgrass",[1]; 0.125 kg/ha,60%
same,"% Control, Crabgrass",[1]; 0.25 kg/ha,94%
same,"% Control, Crabgrass",[1]; 0.50 kg/ha,99%
same,"% Control, Crabgrass",[1]; 1.00 kg/ha,99%
same,"Crop Response, Lima beans",lima beans; 0.125 kg/ha,0
same,"Crop Response, Lima beans",lima beans; 0.25 kg/ha,1
same,"Crop Response, Lima beans",lima beans; 0.50 kg/ha,4
same,"Crop Response, Lima beans",lima beans; 1.00 kg/ha,8.5
same,"% Control, Purslane",[2]; 0.125 kg/ha,82%
same,"% Control, Purslane",[2]; 0.25 kg/ha,97%
same,"% Control, Purslane",[2]; 0.50 kg/ha,100%
same,"% Control, Purslane",[2]; 1.00 kg/ha,100%
same,"Crop Response, Soybeans",soybeans; 0.125 kg/ha,0
same,"Crop Response, Soybeans",soybeans; 0.25 kg/ha,1.5
same,"Crop Response, Soybeans",soybeans; 0.50 kg/ha,3
same,"Crop Response, Soybeans",soybeans; 1.00 kg/ha,7.5
same,"% Control, Ragweed",[3]; 0.125 kg/ha,90%
same,"% Control, Ragweed",[3]; 0.25 kg/ha,99%
same,"% Control, Ragweed",[3]; 0.50 kg/ha,99%
same,"% Control, Ragweed",[3]; 1.00 kg/ha,100%
same,"% Control, Velvetleaf",[4]; 0.125 kg/ha,90%
same,"% Control, Velvetleaf",[4]; 0.25 kg/ha,99%
same,"% Control, Velvetleaf",[4]; 0.50 kg/ha,100%
same,"% Control, Velvetleaf",[4]; 1.00 kg/ha,100%
same,"% Control, Barnyardgrass",[5]; 0.125 kg/ha,45%
same,"% Control, Barnyardgrass",[5]; 0.25 kg/ha,82%
same,"% Control, Barnyardgrass",[5]; 0.50 kg/ha,98%
same,"% Control, Barnyardgrass",[5]; 1.00 kg/ha,99%
same,"control of crabgrass, foxtails and barnyardgrass, in words",naturally emerging weeds; compared to Treatment II,outstanding when compared to Treatment II
same,"% control results, in words","naturally emerging weeds; eight naturally emerging weeds, versus Treatment II",clearly superior to Treatment II
